Source: publication PMC9767416, “Discovery of small molecule mechanistic target of rapamycin inhibitors as anti-aging and anti-cancer therapeutics” (Frontiers in Aging Neuroscience, 2022)

What was measured:
Type in all cases: cell-based, human
[1] = test system: mTORC2 substrate AKT (Ser473 phosphorylation); test: Immunoblot of phospho-AKT (Ser473), mTORC2 activity in cells; details: 100 μM; for AKT phosphorylation relative to control cells: after 5 h
Text: For immunoblotting, the following primary and secondary antibodies were used: rabbit polyclonal p70 S6 kinase (#9202), rabbit monoclonal phospho-p70 S6 kinase (Thr389) ([…]), rabbit monoclonal AKT kinase (#4691), rabbit monoclonal phospho-AKT kinase (Ser473) ([…]) obtained from Cell Signaling Technology, Inc., Danvers MA, USA; p21waf1 (sc-56335) obtained from Santa Cruz Biotechnology, Inc., Dallas, TX, USA and mouse monoclonal anti-GAPDH (GTX3066) purchased from GeneTex, Inc., Irvine, CA, USA; goat anti-mouse (170-6516) or anti-rabbit IgG (H + L)-HRP conjugate (170-6515) purchased from BioRad, Hercules, CA, USA.
Cells were harvested 1 and 5 h after treatment. Cells were washed with PBS, harvested into SDS sample lysis buffer (SLB; 2% SDS, 63 mM Tris–HCl, pH 6.8, and 10% glycerol), sonicated, and centrifuged. Protein concentration was determined by BCA assay (Pierce Biotechnology, Rockford, IL, USA); samples were adjusted to equal protein amount (40 μg) with SLB containing dithiothreitol (1% final conc.) and bromophenol blue (0.02% final conc.), and separated by SDS–PAGE in Tris-glycine-SDS buffer (BioRad, 1610772). Proteins were electrotransferred onto a nitrocellulose membrane (0.45 μm NC, Amersham™, GE Healthcare Life Sciences) using wet transfer in Tris-glycine buffer (BioRad, 1810704) with 10% methanol (Sigma, 59304). After blocking with 5% non-fat milk in PBS/Tween-20, proteins were detected using specific antibodies and horseradish peroxidase (HRP)-conjugated secondary antibodies. Peroxidase activity was detected by ECL detection reagents (Thermo Fisher Scientific, Waltham, MA, USA).
BJ, RPE-1, U87, U373, T98, A172, MDA-MB-231, H1299, and DU-145 cells were exposed to compound 3 (100 μM) for 1 and 5 h and the level of AKT serine 473 (Ser473) phosphorylation was assayed by immunoblotting. […] However, in several cell types (BJ, RPE-1, MDA-MB-231, H1299, and DU-145), the AKT phosphorylation was higher after 5 h of exposure than in control cells (Figure 11).

[2] = test system: temozolomide (TMZ)-induced senescent U87 cells; test: Crystal violet and resazurin assays in TMZ-induced senescent U87; details: 0–100 μM, 24 h
Description: To obtain ionizing radiation (IR)-induced senescent cells, proliferating RPE-1 cells were exposed to a single dose of X-rays (20 Gy) using Pantak HF160 (Gulmay, Surrey, UK) X-ray instrument equipped with Pantak Seifert HF320 generator, MXR-161 X-ray tube (Comet AG, Flamatt, Switzerland), and an aluminum filter using current 1–10 mA. After irradiation, the cells were cultured for an additional 7 days until the development of the senescent phenotype ([Salovska et al., 2022]). To induce docetaxel-induced senescence (DIS), BJ cells were exposed to 5 nM docetaxel for 7 days, as described previously ([Sapega et al., 2018]). […]
For the crystal violet assay, the cells were washed twice with 150 μL PBS and stained with 30 μL 0.5% (w/v) crystal violet in 20% methanol for 15 mins. […] The absorbance was read at 595 nm using a microplate reader (Envision, PerkinElmer, Waltham, MA, USA). The absorbance of crystal violet in treated cells was expressed as a percentage of absorbance in untreated cells. Each condition was measured at least in triplicate.
For the resazurin assay, 200 μL of the culture medium of each well was exchanged for 100 μL of resazurin (stock solution 30 mg/mL; Sigma, St. Louis, MO, USA) diluted 10 times in the culture medium, and the cells were incubated at 37°C for 1–3 h. Reading of fluorescence was done using a microplate reader (PerkinElmer, Waltham, MA, USA). […]

BJ, RPE-1 and U373 cells = test: Crystal violet and resazurin proliferation screen in proliferating cells; details: RPE-1, U373, 0, 10, 50, 80, 100 μM, 24 h
Description: All cell lines used in the study were obtained from the American Type Culture Collection (ATCC, Manassas, VA, USA). Human telomerase-immortalized retinal pigment epithelial cells RPE-1, glioblastoma U-87 MG, glioblastoma U373MG, glioblastoma T98G, glioblastoma A-172, breast adenocarcinoma MDA-MB-231, prostate carcinoma DU-145, and non-small cell lung cancer NCI-H1299 cell lines were cultured in Dulbecco’s modified Eagle’s medium (DMEM, Thermo Fisher Scientific, Waltham, MA, USA) with high glucose (4.5 g/L). Primary human skin BJ fibroblasts were cultured in Dulbecco’s modified Eagle’s medium (DMEM, Thermo Fisher Scientific, Waltham, MA, USA) with low glucose (1 g/L). Both cell culture media were supplemented with 10% fetal bovine serum (FBS, Gibco/Thermo Fisher Scientific) and non-essential amino acids (NEAA), 100 units/mL of penicillin, and 100 μg/mL of streptomycin (Sigma-Aldrich). Cells were kept at 37°C under a 5% CO2 atmosphere and 95% humidity.
Twenty-four hours before treatment, cells were plated in 96-well plates at densities of 2,850 cells per well for senescent RPE-1 (IR-RPE-1), 3,350 cells per well for proliferating RPE-1 and senescent BJ (DIS-BJ), and 5,000 cells per well for U373, T98, A172, U87, TMZ-U87, and proliferating BJ cells.
For the crystal violet assay, the cells were washed twice with 150 μL PBS and stained with 30 μL 0.5% (w/v) crystal violet in 20% methanol for 15 mins. Next, the plates were washed five times with ddH2O and left to dry overnight. Crystal violet was solubilized with 75 μL 0.2% Triton X-100 (Sigma) in PBS for 15 mins. The absorbance was read at 595 nm using a microplate reader (Envision, PerkinElmer, Waltham, MA, USA). The absorbance of crystal violet in treated cells was expressed as a percentage of absorbance in untreated cells. Each condition was measured at least in triplicate.
For the resazurin assay, 200 μL of the culture medium of each well was exchanged for 100 μL of resazurin (stock solution 30 mg/mL; Sigma, St. Louis, MO, USA) diluted 10 times in the culture medium, and the cells were incubated at 37°C for 1–3 h. Reading of fluorescence was done using a microplate reader (PerkinElmer, Waltham, MA, USA). Absolute values of fluorescence were related to the values of untreated cells. Each condition was measured at least in triplicate.

## Nc1ccc(C(=O)Nc2cccc(-c3c[nH]c4ncccc34)c2)cc1O [Compound 3, N-(3-(1H-pyrrolo[2,3-b]pyridin-3-yl)phenyl)-4-amino-3-hydroxybenzamide]
[1]; A172, after 1 h
  effect on Ser473 AKT phosphorylation: Transient inhibition
[1]; BJ, after 1 h
  effect on Ser473 AKT phosphorylation: Transient inhibition
[1]; BJ
  AKT phosphorylation relative to control cells: higher
[1]; DU-145, after 1 h
  effect on Ser473 AKT phosphorylation: Transient inhibition
[1]; DU-145
  AKT phosphorylation relative to control cells: higher
[1]; H1299, after 1 h
  effect on Ser473 AKT phosphorylation: Transient inhibition
[1]; H1299
  AKT phosphorylation relative to control cells: higher
[1]; MDA-MB-231, after 1 h
  effect on Ser473 AKT phosphorylation: Transient inhibition
[1]; MDA-MB-231
  AKT phosphorylation relative to control cells: higher
[1]; RPE-1, after 1 h
  effect on Ser473 AKT phosphorylation: Transient inhibition
[1]; RPE-1
  AKT phosphorylation relative to control cells: higher
[1]; T98, after 1 h
  effect on Ser473 AKT phosphorylation: Transient inhibition
[1]; T98, after 1 h, inhibitory level kept after 5 h
  rank of the inhibitory effect on Ser473 AKT phosphorylation among cell lines: most potent inhibitory effect
[1]; U87, after 1 h
  effect on Ser473 AKT phosphorylation: Transient inhibition
[1]; U373, after 1 h
  effect on Ser473 AKT phosphorylation: Transient inhibition
[2]
  effect on the readout of crystal violet and resazurin assays: similarly to proliferating U87 cells
BJ, RPE-1 and U373 cells
  effect on the readout of crystal violet and resazurin assays: significant suppressive effect
